One data set concerns L 1210 leukemia. In words: in vivo antitumor activity: L 1210 (prolongation of lifespan of CDF1 mice inoculated intraperitoneally with L 1210 cells). On the set-up: species or system mice (murine; CDF1). The conditions noted are these: for T/C: once daily for 10 days, from 24 h after inoculation. As to the method: Antitumor effect against experimental animal tumor was examined as follows. CDF1 mice were inoculated with 1×10^5 cells of L 1210 cells intraperitoneally, and 2-hydroxyaclacinomycin A was administered intraperitoneally once daily for 10 days consecutively, 24 hours after inoculation. Prolongation of lifespan over controls (injected with only physiological saline instead of 2-hydroxyaclacinomycin A) is shown in Table 1. LD50 value in dd mice is also shown in Table 1 comparing with that of aclacinomycin A.

For data set [1], the system named is L 1210 cells. In words: in vitro activity: L 1210 growth inhibition. The following applies: for IC50: Mus musculus, L1210, L 1210, RPMI 1640 with 20% calf serum, 37° C. It is filed as cell-based, murine. The protocol:
(§1) In an example, L 1210 cells were inoculated in RPMI (Rosewell Park Memorial Institute) 1640 medium containing 20% calf serum at the cell density of 5×10^4 cells/ml, and the compound in the present invention was simultaneously added to the medium at the concentration of 0.1 and 0.5 μg/ml and incubated at 37° C. in a CO2 incubator. 50% growth inhibition concentration of the compound over controls was determined. L 1210 cells as described above were also inoculated at 5×10^5 cells in RPMI 1640 medium containing 10% calf serum and incubated at 37° C. for 1 to 2 hours in a CO2 incubator. The cells were cultured for 15 min. at 37° C. after the compound of the present invention was added at various concentrations, and then ^14 C-uridine (0.05 μCi/ml) or ^14 C-thymidine (0.05 μCi/ml) was added and incubated for 60 additional min. at 37° C. After stopping the pulse-labeling by addition of 10% trichloroacetic acid (TCA) solution to the reaction mixture, acid-insoluble materials were precipitated, washed three times with 5 to 10% TCA, and dissolved in a small amount of formic acid. Then, radioactivity was determined, and inhibitory effects on the RNA and DNA biosynthesis were indicated by the 50% inhibition concentration (IC50) of the incorporation of radioactivity over controls.

For data set [2], the system named is DNA biosynthesis in L 1210 cells. The experiment in a line: in vitro activity: DNA synthesis in L 1210 cells (14C-thymidine incorporation). It is filed as cell-based, murine. The conditions noted are these: Mus musculus, L1210; L 1210, 14C-thymidine, 60 min pulse after 15 min with compound, 37° C. As to the method: as §1
(Dividing cells build labelled thymidine or BrdU into new DNA.)

The subject of data set [3] is RNA biosynthesis in L 1210 cells. In words: in vitro activity: RNA synthesis in L 1210 cells (14C-uridine incorporation). It is filed as cell-based, murine. The conditions noted are these: for IC50: Mus musculus, L1210, L 1210, 14C-uridine, 60 min pulse after 15 min with compound, 37° C. The protocol: as §1
Data set [4] can be described thus: Acute toxicity (LD50) in dd mice. It is filed as in vivo. The conditions noted are these: mouse, in vivo, ip; dd mice.
The subject of the next data set is dd mice. The experiment in a line: Acute toxicity (LD50) in dd mice. Type of data set: in vivo. The conditions noted are these: compared with daunomycin and adriamycin.
The subject of data set [5] is L 1210 cells. In words: growth and nucleic acid biosynthesis of murine leukemia L 1210 cells in culture. It is filed as cell-based. As to the method:
as §1

A short description of data set [6]: cardiotoxicity compared with aclacinomycin A. The conditions noted are these: comparing with aclacinomycin A.

In brackets after ≈: the same amount, converted by molar mass.

The term T/C denotes the ratio of treated to control. One may read the IC50 as the concentration at which inhibition is half-maximal. As a reminder, the LD50 is the dose at which mortality reaches 50%. Read a high LD50 as lower toxicity. Take `CCC1(O)CC(OC2CC(N(C)C)C(OC3CC(O)C(OC4CCC(=O)C(C)O4)C(C)O3)C(C)O2)c2c(cc3c(c2O)C(=O)c2c(O)cc(O)cc2C3=O)C1C(=O)OC` (centres unmarked) [2-Hydroxyaclacinomycin A, 2-hydroxyaclacinomycin A]: the T/C in the data set with L 1210 leukemia (0.5 mg/kg/day i.p.) was determined as 145%; in the data set on L 1210 leukemia (1 mg/kg/day i.p.), 153%; in the data set with L 1210 leukemia (2 mg/kg/day i.p.) it was 176%; in the data set with L 1210 leukemia (4 mg/kg/day i.p.), 201%; with L 1210 leukemia (6 mg/kg/day i.p.), 218%; in the data set with L 1210 leukemia (8 mg/kg/day i.p.) it was 194%. The molecule also registered a T/C in the data set with L 1210 leukemia (12 mg/kg/day i.p.) of 127%. Moreover, in the data set with L 1210 leukemia (L 1210-bearing mice), the “prolongation of lifespan, in words” value is listed as “marked prolongation of lifespan”. Besides, in the data set on L 1210 leukemia (comparing with aclacinomycin A), the “antitumor activity, in words” value is on record as “more potent antitumor activity”. The “effective dose range relative to aclacinomycin A” value in the data set with L 1210 leukemia (relative to aclacinomycin A) was “twice”. In addition, the IC50 was 0.1 µg/mL (≈ 0.121 µM) in the data set with L 1210 cells [1], 0.95 µg/mL (≈ 1.15 µM) in data set [2] and 0.1 µg/mL (≈ 0.121 µM) in data set [3]. The “suppression of growth, in words” value with L 1210 cells [1] (murine leukemic cells, low concentration) is listed as “suppressed the growth of murine leukemic cells at low concentration”. In addition, in data set [3] (mode of action compared to aclacinomycin and rhodomycin-group), the “inhibition of RNA synthesis, in words” value is on record as “specifically inhibited RNA synthesis”. The molecule further came in with an LD50 in data set [4] of 50 mg/kg. The “acute toxicity, in words” value with dd mice was “much more less than those of known anthracycline antibiotics such as daunomycin and adriamycin”. The “inhibition of growth and nucleic acid biosynthesis, in words” value in the data set on L 1210 cells [5] was “inhibited markedly the growth and nucleic acid biosynthesis”. Besides, in data set [6], the “cardiotoxicity, in words” value is listed as “less cardiotoxicity”.
Take `CC[C@@]1(O)C[C@H](O[C@H]2C[C@H](N(C)C)[C@H](O[C@H]3C[C@H](O)[C@H](O[C@H]4CCC(=O)[C@H](C)O4)[C@H](C)O3)[C@H](C)O2)c2c(cc3c(c2O)C(=O)c2c(O)cccc2C3=O)[C@H]1C(=O)OC` [Aclacinomycin A]: the T/C with L 1210 leukemia (0.5 mg/kg/day i.p.) was determined as 130%; with L 1210 leukemia (1 mg/kg/day i.p.) it was 146%; with L 1210 leukemia (2 mg/kg/day i.p.), 165%; in the data set on L 1210 leukemia (4 mg/kg/day i.p.) it was 205%; with L 1210 leukemia (6 mg/kg/day i.p.) it was 105%. In addition, the “toxicity in words at 8 mg/kg/day (in T/C column)” value in the data set with L 1210 leukemia (8 mg/kg/day i.p., L 1210-bearing CDF1 mice) is “Toxic”. The half-maximal inhibitory concentration (IC50) with L 1210 cells [1] is 0.12 µg/mL (≈ 0.148 µM); in data set [2] it was 1.1 µg/mL (≈ 1.35 µM); in data set [3], 0.1 µg/mL (≈ 0.123 µM). Also, the LD50 in data set [4] came to 22.6 mg/kg.
